Test results as given in patent US20220280587A1, “MEDICAL GELS CONTAINING A QUATERNARY AMMONIUM COMPOUND, PHENOXYETHANOL, ALOE VERA JUICE, AND NATURAL SPORICIDAL MOISTURIZERS” (priority 2021, published 2022).
In brackets after ≈: the same amount, converted by molar mass.

Key:
Type in all cases: cell-based
C. botulinum spores = experiment: microbe, parasite or virus in culture; details: for MIC / MBC: Clostridium botulinum; for MIC: read-out: Sporostatic MIC (mM); for MBC: read-out: Sporicidal MIC (mM)
P. italicum = experiment: Antifungal combination of potassium sorbate and vanillin (MIC, FIC isobologram); details: Penicillium italicum
P. glabrum = experiment: as above
P. digitatum = experiment: as above; details: Penicillium digitatum
Pseudomonas aeruginosa = experiment: Bactericidal / inhibitory concentration against Pseudomonas aeruginosa

Compound O=CC(=O)c1ccccc1 [Phenylglyoxal] has an MIC (C. botulinum spores) of 0.6 mM (≈ 80.5 µg/mL).
With CCCCCCC=O [Hepaldehyde] the “Sporicidal MIC” value (C. botulinum spores) was greater than 2500 mM and the “Sporostatic MIC” value (C. botulinum spores) was 0.60 mM.
With CC(C)C=O [Isobutyraldehyde] the MBC (C. botulinum spores) was 39 mM (≈ 2810 µg/mL) and the MIC (C. botulinum spores) was 0.6 mM (≈ 43.3 µg/mL).
Work on CCCCCC(C=O)=Cc1ccccc1 [α-Amylcinnamaldehyde] yielded an MIC (C. botulinum spores) of 0.6 mM (≈ 121 µg/mL).
Work on COc1cc(C=O)ccc1O [Vanillin] yielded an MIC (P. italicum; potassium sorbate 0 PPM) of 1100 µg/mL, an MIC (P. italicum; potassium sorbate 100 PPM) of 300 µg/mL and an MIC (P. italicum; potassium sorbate 150 PPM) of 100 µg/mL. The MBC (C. botulinum spores) was 1.25 mM (≈ 190 µg/mL), the MIC (C. botulinum spores) was 0.6 mM (≈ 91.3 µg/mL) and the MIC (P. glabrum; potassium sorbate 0 PPM) was 1200 µg/mL. For the same compound, the MIC (P. glabrum; potassium sorbate 100 PPM) was 1100 µg/mL, the MIC (P. glabrum; potassium sorbate 300 PPM) was 500 µg/mL and the MIC (P. glabrum; potassium sorbate 500 PPM) was 100 µg/mL. The MIC (P. digitatum; potassium sorbate 0 PPM) was 1100 µg/mL, the MIC (P. digitatum; potassium sorbate 50 PPM) was 300 µg/mL and the MIC (P. digitatum; potassium sorbate 100 PPM) was 100 µg/mL.
Compound O=CC=Cc1ccccc1 [Cinnamaldehyde] has an MIC (C. botulinum spores) of 0.78 mM (≈ 103 µg/mL).
In the case of CC(=O)C=O [Pyruvaldehyde], the “Sporicidal MIC” value (C. botulinum spores) was 156 mM and the “Sporostatic MIC” value (C. botulinum spores) was 2.44 mM.
O=Cc1ccccc1 [Benzaldehyde] showed an MIC (C. botulinum spores) of 0.6 mM (≈ 63.7 µg/mL).
Compound O=Cc1ccc2c(c1)OCO2 [Piperonal] has an MIC (C. botulinum spores) of 0.6 mM (≈ 90.1 µg/mL).
For O=CCc1ccccc1 [Phenylacetaldehyde], the MIC (C. botulinum spores) was 0.6 mM (≈ 72.1 µg/mL).
With benzalkonium chloride the “Concentration that kills Pseudomonas aeruginosa” value (Pseudomonas aeruginosa; benzalkonium chloride alone) was 0.13% and the “Concentration that kills Pseudomonas aeruginosa” value (Pseudomonas aeruginosa; when aloe vera juice is present at 10%) was 0.10%.
With CC=O [Acetaldehyde] the MIC (C. botulinum spores) was 0.78 mM (≈ 34.4 µg/mL).
CCCCC=O [Valeraldehyde] was tested, and the MIC (C. botulinum spores) was 2.44 mM (≈ 210 µg/mL).
